Drawing on ChEMBL document CHEMBL1201862, “PubChem BioAssay data set” (2004), this text covers IC50, EC50 and CC50 for 26 molecules.

Each structure is given as a SMILES string. Activity calls are given as the source filed them. Cut-off read from the data, not from the text of the source, for most assays here: actives have a measured EC50 and inactives only a lower limit.

Assay [1] deals with T1, Rac GTPase-activating protein 1 (Homo sapiens, UniProt Q9H0H5).
T1 sequence (Q9H0H5 whole entry): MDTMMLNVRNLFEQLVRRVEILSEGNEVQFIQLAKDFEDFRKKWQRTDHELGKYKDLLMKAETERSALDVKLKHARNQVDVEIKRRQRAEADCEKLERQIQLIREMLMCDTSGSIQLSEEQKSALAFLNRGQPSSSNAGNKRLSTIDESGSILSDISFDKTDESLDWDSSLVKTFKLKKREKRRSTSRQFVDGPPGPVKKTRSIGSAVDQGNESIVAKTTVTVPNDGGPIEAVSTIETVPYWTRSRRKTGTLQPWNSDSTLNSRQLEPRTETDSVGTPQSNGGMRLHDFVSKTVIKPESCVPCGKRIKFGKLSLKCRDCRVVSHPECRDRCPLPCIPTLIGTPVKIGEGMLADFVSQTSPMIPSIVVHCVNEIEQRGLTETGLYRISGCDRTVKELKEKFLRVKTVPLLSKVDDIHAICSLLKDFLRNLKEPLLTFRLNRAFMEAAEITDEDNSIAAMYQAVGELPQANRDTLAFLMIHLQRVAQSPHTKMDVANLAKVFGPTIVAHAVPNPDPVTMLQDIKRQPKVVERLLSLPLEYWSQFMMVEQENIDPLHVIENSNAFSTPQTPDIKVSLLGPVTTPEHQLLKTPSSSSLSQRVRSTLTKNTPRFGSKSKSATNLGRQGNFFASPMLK
The assay can be described thus: MgcRacGAP GTPase-activating activity inhibitors, confirmation, biochemical, ADP Hunter fluorescence, primary and confirmatory (AID 624330). The assay is classed as functional.

Assay [2] has as its target T2, Corticotropin-releasing factor receptor 2/Corticotropin-releasing factor-binding protein (Homo sapiens, UniProt P24387+Q13324).
T2 sequence (Q13324 whole entry): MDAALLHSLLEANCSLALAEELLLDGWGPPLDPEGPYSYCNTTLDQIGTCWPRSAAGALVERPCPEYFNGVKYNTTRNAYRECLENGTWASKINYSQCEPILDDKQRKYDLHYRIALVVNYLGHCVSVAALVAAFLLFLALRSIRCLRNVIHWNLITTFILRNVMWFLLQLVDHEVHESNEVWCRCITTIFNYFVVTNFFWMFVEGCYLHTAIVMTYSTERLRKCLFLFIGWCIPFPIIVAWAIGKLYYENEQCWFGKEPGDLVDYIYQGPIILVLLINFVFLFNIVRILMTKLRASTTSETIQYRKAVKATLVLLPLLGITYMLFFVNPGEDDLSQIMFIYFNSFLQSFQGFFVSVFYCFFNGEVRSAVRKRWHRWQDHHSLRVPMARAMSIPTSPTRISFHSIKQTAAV
T2 sequence (P24387 whole entry): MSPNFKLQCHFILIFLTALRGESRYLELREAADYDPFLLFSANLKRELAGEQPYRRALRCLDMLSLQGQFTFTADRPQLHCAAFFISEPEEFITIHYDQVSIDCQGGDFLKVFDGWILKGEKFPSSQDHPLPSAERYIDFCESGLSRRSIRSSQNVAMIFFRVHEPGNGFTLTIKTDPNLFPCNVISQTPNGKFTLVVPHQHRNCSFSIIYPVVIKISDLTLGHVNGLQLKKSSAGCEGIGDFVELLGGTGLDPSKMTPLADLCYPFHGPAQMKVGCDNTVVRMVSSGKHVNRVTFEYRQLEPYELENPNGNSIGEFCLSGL
Nature of the assay: activators of CRF receptor 2 with binding protein – uHTS hits, confirmation (AID 602473). The assay is classed as functional. The note with it: read-out: EC50_Mean.

In assay [3] the target is T2, Corticotropin-releasing factor receptor 2/Corticotropin-releasing factor-binding protein. The assay can be described thus: Dose Response confirmation of uHTS hits for small molecule antagonists of the CRF-binding protein and CRF-R2 receptor complex. Type of assay: functional. The note with it: read-out: IC50_Mean.
Assay [4] is described as follows: cells. The assay is classed as functional, cell-based.
Assay [5] is described as follows: cells. Type of assay: functional, cell-based. The source holds these as a separate data set.
The nature of assay [6]: HEp-2 cell cytotoxicity, dose response, cytotoxicity control for RSV inhibitor project, HTS (AID 2410). Type of assay: functional. The conditions noted are these: human respiratory syncytial virus.
For assay [7], the target named is T3, Zinc finger protein mex-5 (Caenorhabditis elegans, UniProt Q9XUB2).
T3 sequence (Q9XUB2 whole entry): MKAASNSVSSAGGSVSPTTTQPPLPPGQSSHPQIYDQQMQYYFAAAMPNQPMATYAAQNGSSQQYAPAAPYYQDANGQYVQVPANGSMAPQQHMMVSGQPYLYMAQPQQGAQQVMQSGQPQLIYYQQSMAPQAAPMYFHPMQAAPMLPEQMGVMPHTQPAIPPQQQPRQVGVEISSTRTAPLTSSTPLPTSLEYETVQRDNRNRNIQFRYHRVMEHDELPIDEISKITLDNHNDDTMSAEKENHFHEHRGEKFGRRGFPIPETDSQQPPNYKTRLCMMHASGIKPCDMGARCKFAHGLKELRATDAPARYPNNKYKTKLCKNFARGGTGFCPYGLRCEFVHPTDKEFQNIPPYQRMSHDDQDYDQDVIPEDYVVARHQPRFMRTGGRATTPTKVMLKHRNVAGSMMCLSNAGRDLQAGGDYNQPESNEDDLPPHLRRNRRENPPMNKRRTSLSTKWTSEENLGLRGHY
The assay can be described thus: MEX-5/TCR-2 RNA interaction inhibitors, dose response, biochemical, C. elegans, fluorescence polarization (AID 1960).

In assay [8] the target is T4, RNA-binding protein pos-1 (Caenorhabditis elegans, UniProt G5EF15).
T4 sequence (G5EF15 whole entry): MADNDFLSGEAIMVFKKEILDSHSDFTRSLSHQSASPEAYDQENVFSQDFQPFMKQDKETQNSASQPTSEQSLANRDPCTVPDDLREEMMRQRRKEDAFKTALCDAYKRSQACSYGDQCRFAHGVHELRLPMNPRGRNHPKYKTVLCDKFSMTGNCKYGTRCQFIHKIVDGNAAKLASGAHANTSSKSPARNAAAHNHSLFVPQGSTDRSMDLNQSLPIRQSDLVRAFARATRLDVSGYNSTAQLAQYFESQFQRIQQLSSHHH
The assay can be described thus: inhibitors of POS-1/mex-3 RNA binding, dose response, biochemical, fluorescence polarization (AID 1964).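 Note: purified POS-1 fused to maltose binding protein made in E. coli; potency of compounds blocking POS-1 binding to fluorescent RNA.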 In general terms: Fluorescence polarisation rises when a labelled molecule tumbles more slowly, as on binding a larger partner.

Assay [9] concerns the target T5, Heat shock factor protein 1 (Mus musculus, UniProt P38532).
T5 sequence (P38532 whole entry): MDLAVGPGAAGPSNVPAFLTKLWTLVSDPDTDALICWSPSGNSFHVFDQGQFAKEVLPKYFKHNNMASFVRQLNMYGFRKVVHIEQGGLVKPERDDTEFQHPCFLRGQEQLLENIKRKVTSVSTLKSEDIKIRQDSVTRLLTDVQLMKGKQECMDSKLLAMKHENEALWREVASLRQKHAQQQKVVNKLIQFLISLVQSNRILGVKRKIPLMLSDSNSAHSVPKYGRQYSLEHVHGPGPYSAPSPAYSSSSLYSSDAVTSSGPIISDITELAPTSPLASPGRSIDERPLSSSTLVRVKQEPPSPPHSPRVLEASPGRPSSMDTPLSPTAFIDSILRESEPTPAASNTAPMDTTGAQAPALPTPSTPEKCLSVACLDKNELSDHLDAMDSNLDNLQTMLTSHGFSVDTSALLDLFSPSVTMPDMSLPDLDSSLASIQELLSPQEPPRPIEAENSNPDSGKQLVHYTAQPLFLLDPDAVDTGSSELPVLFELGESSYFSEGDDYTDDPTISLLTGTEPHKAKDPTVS
Nature of the assay: inhibition of MG132-induced HSE-luciferase signal, confirmation, cell-based, NIH3T3, luminescence, dose retest (AID 2382).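 Note: NIH3T3 fibroblasts with HSF1-driven luciferase reporter stressed by proteasome inhibitor MG132; luminescence from HSF1-driven luciferase expression after 8 hours of MG132 stress.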 Type of assay: functional.

On to `CCc1ccccc1N=C(S)NCC1CCN(c2ccc(OC)cc2)C1` (configuration not stated), for which the IC50 in assay [1] was 43.3 µM (active). The same measure, in the same setting: in the case of `CN(c1ccc(O)cc1)c1nc(-c2cccs2)cs1` it was 70.4 µM (active). As for `O=C(O)CCC(=O)Nc1ccc(Br)c(Cl)c1`, the EC50 in assay [2] is > 53 µM (inactive). Also, in [3], the IC50 is < 0.368 µM (active).

Turning to `COc1ccc(N(CC(=O)Nc2cc(OC)ccc2OC)S(=O)(=O)c2c(C)noc2C)cc1`, the EC50 in “cells [4]” and in “cells [5]” was > 350 µM (not active) throughout. With `O=C(O)C1=C[C@@H](c2ccc(Br)cc2)C[C@@H](OCc2ccc(CO)cc2)O1`, in assay [2], the EC50 is > 53 µM (inactive). Also, the IC50 in assay [3] is > 47.1 µM (inactive).

`Cc1ccccc1-c1nc2ccccc2c(=O)n1/N=C/c1ccccc1[N+](=O)[O-]`: the EC50 in the assay “cells [4]” and in the assay “cells [5]” was > 350 µM (not active) in each case. As to `COc1cc(/C=C/C(=O)OCC(=O)N2CC3(C)CC2CC(C)(C)C3)ccc1O` (configuration not stated), in assay [1], the IC50 is 49.6 µM (active). Consider `CCOc1cc(/C=N/NC(=O)NN(C)c2ncc(C(F)(F)F)cc2Cl)ccc1O`, for which the IC50 in [1] is 88.4 µM (active). Regarding `Cn1c(CCNC(=O)c2ccco2)nc2cc(NC(=O)c3ccco3)ccc21`, the EC50 in assay [2] was > 53 µM (inactive). The IC50 in assay [3] is > 47.1 µM (inactive). For `Cn1cc(S(=O)(=O)Nc2ccc(Br)cc2F)c(=O)n(C)c1=O`, in that order: > 53 µM (inactive) and > 47.1 µM (inactive).

In the case of `Cc1nnc(-c2ccccc2)nc1N(C)C`, the EC50 in the assay “cells [4]” and in the assay “cells [5]” was > 350 µM (not active) each time. Consider `COC(=O)C12CCc3c(ccc4cc(OC)ccc34)C1=CC(=O)C2` (configuration not stated), for which, in [2], the EC50 is > 53 µM (inactive). Besides, in assay [3], the IC50 was > 47.1 µM (inactive). Regarding `Cc1ccc(S(=O)(=O)N2CCOC23CCN(C(=O)c2cc(Cl)ccc2Cl)CC3)cc1`, the half-maximal cytotoxic concentration (CC50) (usually the concentration giving 50% cytotoxicity) in assay [6] is 16.3 µM (active). The EC50 in the assay “cells [4]” and in “cells [5]” was > 350 µM (not active) each time.

As for `COc1ccc(-c2cccc(NS(=O)(=O)c3cccc([N+](=O)[O-])c3)c2)nn1`, the EC50 in [2] is > 53 µM (inactive). Further, in assay [3], the IC50 was > 47.1 µM (inactive). `Cc1cccc(C(=O)OC(C)CN2CCCC2)c1` (configuration not stated): the EC50 in “cells [4]” and in the assay “cells [5]” was > 350 µM (not active) each time. With `Cc1ccccc1NC(=O)c1ccccc1O`, the EC50 in “cells [4]” is > 350 µM (not active); in “cells [5]”, 50.3 µM (active).

Take `COc1ccc(C2CC(c3ccc(Br)cc3)=NN2C(=O)CCC(=O)O)cc1OC` (configuration not stated): the EC50 in assay [2] was > 53 µM (inactive). Moreover, in assay [3], the IC50 was > 47.1 µM (inactive). For `COc1cccc(CNc2ccc3c(c2)ncn3C)c1OC`, the IC50 in assay [1] was 99.4 µM (active). On to `CN1CCCN(Cc2ccccc2C(F)(F)F)CC1`, for which, in assay [1], the IC50 was 83.3 µM (active).

Take `CCCn1cc2c3c(cccc31)C1CC(C)CN(C)C1C2` (configuration not stated): the EC50 in assay [7] is 29.6 µM (active); in assay [8], 36 µM (active). For `Cc1cc(C)nc(NNC2=CC(=O)CC(C)(C)C2)n1`, in that order: 10.9 µM (active) and 84.6 µM (active). With `CC1(C)CC2CC(C)(CN2/C=C2/CCCCC2=O)C1` (configuration not stated), the EC50 in assay [2] was > 53 µM (inactive). The IC50 in assay [3] is > 47.1 µM (inactive).

As to `CCN(CC)CCNC1=CC(=O)OC12CCCCC2`, the EC50 in the assay “cells [4]” and in “cells [5]” was > 350 µM (not active) each time. `CCOc1ccc(CN2CCN(S(=O)(=O)c3ccc(NC(C)=O)cc3)CC2)cc1`: the IC50 in assay [1] is 221 µM (active). As to `N=c1c(C(=O)NC2CCCC2)cc2c(=O)n3ccccc3nc2n1Cc1ccccc1`, the results for the EC50 in assay [7], in assay [9] and in [8] were 41.3 µM (active), > 195 µM (not active) and 31.6 µM (active), respectively. As for `COc1ccc(CC(=O)N2CCN(C(=O)Cc3ccc(OC)cc3)CC2)cc1`, the EC50 in “cells [4]” and in “cells [5]” was > 350 µM (not active) throughout.
